Assay results taken from patent US10731221B2, “Diagnosing IDH1 related subgroups and treatment of cancer” (Dignity Health, priority 2009, dated 2020).

Tests used:
[1] = system: GBM, AKT SL (secondary-like) subtype; assay: Kaplan Meier survival of TCGA GBM patients receiving or not receiving BCNU and/or CCNU, by AKT subgroup; assay type: in vivo, human; conditions: for survival advantage: Secondary-Like patients, CCNU/BCNU; for median survival: TCGA SL patients treated with BCNU or CCNU (vs. other treatments), p=0.03 after correcting for age, log rank; for sensitivity of patients in the SL subgroup: TCGA SL subgroup
Text: FIG. 5 depicts, in accordance with various embodiments of the invention, evidence that SL subtype (AKT subgroup 5) patients are sensitive to alkylating agents BCNU and CCNU. Kaplan Meier survival curves for TCGA patients receiving (solid line) or not receiving (dashed line) alkylating agent (BCNU and/or CCNU) by subgroup. p=0.03 after correcting for age (SL subtype; log rank). n=6 and 16 for SL patients receiving or not receiving BCNU/CCNU, respectively.
The discovery dataset (GBM195) consisted of 181 GBM (WHO grade IV astrocytoma; (159 primary and 22 recurrent) from 3 datasets, [4], [21] and 14 non-neoplastic samples from 2 sources: (1) six samples from patients undergoing temporal lobe epilepsy surgery and (2) eight samples from autopsy specimens of cerebral cortex from donors with no history of neurological disorders obtained from the National Neurological Research Brain Bank (Los Angeles, Calif.). Two datasets are in GEO (GSE4271, GSE4412) and the third has been submitted. Table 1 lists GEO ID's and clinical information for GBM195 tumors. Tissue collection and processing, pathological review, and microarray analysis for the discovery dataset (GBM195) has been described elsewhere ([3] Nigro et al. 2005, [4] Phillips et a. 2006, and [21] Freije et al. 2004, which are incorporated herein by reference in their entirety as though fully set forth.) The validation dataset consisted of 583 samples; 573 GBM (16 recurrent and 3 secondary) and 10 non-neoplastic samples from The Cancer Genome Atlas (TCGA). Samples were collected and processed as described ([5] Atlas TCG 2008, which is incorporated herein by reference in its entirety as though fully set forth.). IRB or Committee on Human Research approval was obtained for samples used in the discovery and validation datasets as described, [4], [10], [21].
Differences between one subgroup and the rest were assessed using the F test for […] and the likelihood ratio test for categorical variables. The Bonferroni method was applied to correct for multiple hypotheses. The inventors applied the Tukey HSD test to find pairwise differences between groups and correct for multiple comparisons. Survival differences between subgroups were assessed using the Chi-squared test. Age was added to build a multivariate Cox model. For survival comparisons of BCNU/CCNU treatment between subgroups there were not enough observations to correct for age. After deleting all observations younger than 45, survival was no longer related to age. Significance was then determined using log rank. The Pearson goodness-of-fit test was used to assess the null hypothesis that proportions of G-CIMP tumors by subgroup and recurrent tumors by subgroup are equal to the proportions for all tumors by subgroup. P-values for these tests were calculated by Monte Carlo simulation since the counts of tumors by subgroup were too small to apply the large sample chi-square approximation.
Since AKT influences response to chemotherapy, while not wishing to be bound by any theory, the inventors believe AKT subgroups are predictive markers. Indeed, TCGA SL patients treated with BCNU or CCNU had longer median survival than those receiving other treatments (FIG. 5; median survival=5.8 vs. 1.05 years; p=0.03 after correcting for age; log rank). […] This finding indicates patients in the SL subgroup are sensitive to BCNU and CCNU.

[2] = system: Glioblastoma AKT subgroups (Mesenchymal, Secondary-Like); assay: Kaplan Meier survival of TCGA patients receiving more vs. less temozolomide, by AKT subgroup; assay type: in vivo, human
Text: FIG. 17 depicts, in accordance with various embodiments of the invention, evidence that Mesenchymal patients benefit from temozolomide. Kaplan Meier survival curves were plotted within each subgroup for TCGA patients receiving more (≥3 cycles; red) vs. less (<3 cycles; black) temozolomide. […] Median survival was 0.6 years greater for Mesenchymal patients treated with more temozolomide (1.8 years) vs. less temozolomide (1.2 years); p=0.01 log rank; not age adjusted.
We plotted Kaplan Meier survival curves for patients treated with more vs. less TMZ in each AKT subgroup (FIG. 17). Since most TCGA patients received some TMZ, it was not possible to plot survival curves for patients treated with and without the drug. Instead, we compared survival in 2 treatment arms, those receiving more (≥3) vs. less (<3) cycles.
There was a tendency for patients who received more TMZ to not have received a nitrosourea. […] Without wishing to be bound by any particular theory, this may underlie the worse survival of patients receiving more TMZ in the Secondary-Like subgroup.

| Compound | survival advantage [1] | median survival [1] | sensitivity of patients in the SL subgroup [1] | median survival ([2]; less temozolomide (<3 cycles)) | median survival ([2]; more temozolomide (≥3 cycles), p=0.01 log rank, not age adjusted) | Median survival difference, more vs. less temozolomide ([2]; ≥3 vs. <3 cycles) |
| --- | --- | --- | --- | --- | --- | --- |
| O=NN(CCCl)C(=O)NCCCl [BCNU, carmustine] | 4.5 year | 5.8 years | sensitive | – | – | – |
| O=NN(CCCl)C(=O)NC1CCCCC1 [CCNU, lomustine] | 4.5 year | 5.8 years | sensitive | – | – | – |
| Cn1nnc2c(C(N)=O)ncn2c1=O [temozolomide] | – | – | – | 1.2 years | 1.8 years | 0.6 years |
